Data published in patent EP4140481A1, “PROTEIN-OLIGOMER BINDING AGENTS AND THERAPEUTIC USES THEREOF” (Galyan Bio, Inc., priority 2021, dated 2023).
Values joined by “and” are separate entries in the source; they are usually repeats but may differ in a detail not shown here. Identical values can stand only once.

Experiments:
Htt Exon-1 Q46 = target: T1, Htt Exon-1 Q46 (Homo sapiens, UniProt P42858, INS38QQQQQQQQQQQQQQQQQQQQQQQQQ); assay: Dynamic Light Scattering (DLS), induced aggregation; format: biochemical
T1 construct: Futher experiments were made with Htt Exon-1 Q16 and Q46
Experimental: (§1) Proteins were ultracentrifuged with 50,000 rpm (rounds per minute) for one hour at 2 °C. The supernatant was used for DLS measurements. DLS measurements were conducted with Malvern Zetasizer Nano (Malvern Panalytical Ltd, United Kingdom).
(§2) Futher experiments were made with Htt Exon-1 Q16 and Q46. Table 28 Size Distribution (Volume and Number) of Q16 under various conditions

Htt Exon-1 Q16 = Htt Exon-1 Q16 (Homo sapiens, UniProt P42858, DEL34-38); assay: as above; format: biochemical
Experimental: as §1, §2

LC3 = assay: Autophagic flux (LC3 staining); format: cell-based, mouse
Experimental: Staining - Cells were permeabilized with 0.3% Triton X-100 in 4 °C PBS (pH 7.4 from ThermoFisher) for 10 minutes. Then the cells were washed two times with 4 °C PBS. Subsequently, cells are blocked with 3% NGS (normal goat serum from Thermo Fisher) in 4 ° C PBS for 1 hour. Cells were incubated with primary antibodies in blocking buffer (PBS, 3% NGS, 0.02% NaN3) over night at 4 °C. Primary antibodies were mouse antipolyglutamine monoclonal antibody 3B5H10 (Sigma-Aldrich) at 1:250 dilution and Guinea Pig anti-MAP2 polyclonal antibody (Synaptic Systems) at 1:500 dilution. […]
Fluorescence Imaging - Imaging sessions were performed on a confocal microscope system (Carl Zeiss Microscopy) equipped with a dual spinning disk unit (Yokogawa). […] The fluorescence images obtained of the immunofluorescence labelled tissue sections were quantified with the help of the "Image Processing and Analysis in Java" or short ImageJ software distributed under the GNU General Public License by the NIH (Rueden, C.T. et al., BMC Bioinformatics. 2017 Nov 29;18(1):529), i.e. the edition used was the Fiji distribution (Schindelin, J. et al., Nature methods. 2012 Jun 28;9(7):676-82). […]
Autophagic flux was calculated as the area stained with LC3 antibody per cell in STHdh 111/111 with autophagy inhibitor NH4CI minus area stained with LC3 antibody per cell in STHdh 111/111 without the autophagy inhibitor NH4CI.

[1] = by intensity, equimolar Compound 4
[2] = by number, equimolar Compound 4
[3] = by volume, equimolar Compound 4

T1 sequence (P42858 with tags, fused parts or gaps with the stated changes): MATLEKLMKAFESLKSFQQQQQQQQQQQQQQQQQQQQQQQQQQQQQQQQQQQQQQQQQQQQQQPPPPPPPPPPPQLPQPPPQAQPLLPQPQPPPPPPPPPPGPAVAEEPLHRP
Chain of Htt Exon-1 Q16 (P42858 with tags, fused parts or gaps DEL34-38): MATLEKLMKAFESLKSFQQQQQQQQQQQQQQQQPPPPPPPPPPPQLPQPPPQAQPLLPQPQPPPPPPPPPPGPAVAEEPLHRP

| SMILES | Blood Brain Barrier Penetrability AUCbrain/AUCplasma (Compound 4) | penetration of the blood brain area in vivo (intravenous, 1 mg/kg body weight, brain tissue) | % Intensity, Peak 1 (Htt Exon-1 Q46; [1]) [%] | % Intensity, Peak 2 (Htt Exon-1 Q46; [1]) [%] | % Intensity, Peak 3 (Htt Exon-1 Q46; [1]) | Size, Peak 1 (Htt Exon-1 Q46; [1]) [nm] | Size, Peak 2 (Htt Exon-1 Q46; [1]) [nm] | Size, Peak 3 (Htt Exon-1 Q46; [1]) [nm] | assembly state of Q46 (Htt Exon-1 Q46; exposed to Compound 4) | % Number, Peak 1 (Htt Exon-1 Q16; [2]) [%] | Size, Peak 1 (Htt Exon-1 Q16; [2]) | % Volume, Peak 1 (Htt Exon-1 Q16; [3]) [%] | % Volume, Peak 2 (Htt Exon-1 Q16; [3]) [%] | Size, Peak 1 (Htt Exon-1 Q16; [3]) [nm] | Size, Peak 2 (Htt Exon-1 Q16; [3]) [nm] | assembly state of Q16 (Htt Exon-1 Q16; exposed to Compound 4) | autophagic flux (LC3; STHdh 111/111, LC3 area with NH4Cl minus without NH4Cl) | LC3 stained area (LC3; STHdh 111/111 neurons versus untreated, p < 0.001) |
| --- | --- | --- | --- | --- | --- | --- | --- | --- | --- | --- | --- | --- | --- | --- | --- | --- | --- | --- |
| CCc1c(C)[nH]c2ccc(C(=O)NCCN(CC)CC)cc12 [Compound 4, N-(2-(diethylamino)ethyl)-3-ethyl-2-methyl-1H-indole-5-carboxamide] | AUCbrain/AUCplasma = 2.27 | penetrates the blood brain area | 83.1 | 12.9 | 4,1% | 178.7 | 9.275 | 3917 | assembles as mostly aggregates and larger aggregates | 100 | 6.0 nm and 6.063 nm | 0.2 | 99.8 | 93.12 | 6.949 | mainly monomeric | – | – |
| Cc1[nH]c2ccc(C(=O)NCCN(C(C)C)C(C)C)cc2c1C [Compound 22] | – | – | – | – | – | – | – | – | – | – | – | – | – | – | – | – | positive autophagic flux | decreased |
